# Results as given in patent US20180055032A1, “ODORS FOR PSYLLID TRAPPING, REPELLING AND CONTROL” (The Regents of the University of California, priority 2011, published 2018).
# What was measured:
# Type in all cases: cell-based, Diaphorina citri
# Details in all cases: Table 1; odor diluted to 1%, 50 μL in cartridge
# [1] = system: neuron 2A (rhinarial plate on flagellomere 2); experiment: single-sensillum electrophysiology, odor response of neuron 2A; further: key: 0, no response; +, >50 spikes/second; ++, >100 spikes/second; +++, >150 spikes/second
# [2] = system: neuron 2B (rhinarial plate on flagellomere 2); experiment: single-sensillum electrophysiology, odor response of neuron 2B
# [3] = system: neuron 2C (rhinarial plate on flagellomere 2); experiment: single-sensillum electrophysiology, odor response of neuron 2C
# [4] = system: neuron 4A (rhinarial plate on flagellomere 4); experiment: single-sensillum electrophysiology, odor response of neuron 4A
# [5] = system: neuron 4B (rhinarial plate on flagellomere 4)
# [6] = system: neuron 4C (rhinarial plate on flagellomere 4); experiment: single-sensillum electrophysiology, odor response of neuron 4C
# [7] = system: neuron 6A (rhinarial plate on flagellomere 6); experiment: single-sensillum electrophysiology, odor response of neuron 6A
# [8] = system: neuron 6B (rhinarial plate on flagellomere 6); experiment: single-sensillum electrophysiology, odor response of neuron 6B
# [9] = system: neuron 6C (rhinarial plate on flagellomere 6); experiment: single-sensillum electrophysiology, odor response of neuron 6C
# [10] = system: neuron 7A (rhinarial plate on flagellomere 7); experiment: single-sensillum electrophysiology, odor response of neuron 7A; further: key: 0, no response; +, >50 spikes/second; ++, >100 spikes/second; +++, >150 spikes/second
# [11] = system: neuron 7B (rhinarial plate on flagellomere 7)
# [12] = system: neuron 7C (rhinarial plate on flagellomere 7); experiment: single-sensillum electrophysiology, odor response of neuron 7C
Molecule,"odor response (frequency of action potentials during stimulus minus baseline), 2A [1]","odor response (frequency of action potentials during stimulus minus baseline), 2B [2]","odor response (frequency of action potentials during stimulus minus baseline), 2C [3]","odor response (frequency of action potentials during stimulus minus baseline), 4A [4]","odor response (frequency of action potentials during stimulus minus baseline), 4B [5]","odor response (frequency of action potentials during stimulus minus baseline), 4C [6]","odor response (frequency of action potentials during stimulus minus baseline), 6A [7]","odor response (frequency of action potentials during stimulus minus baseline), 6B [8]","odor response (frequency of action potentials during stimulus minus baseline), 6C [9]","odor response (frequency of action potentials during stimulus minus baseline), 7A [10]","odor response (frequency of action potentials during stimulus minus baseline), 7B [11]","odor response (frequency of action potentials during stimulus minus baseline), 7C [12]"
CC/C=C\CCO [Z3-hexenol],0,0,0,0,"+ (+, >50 spikes/second)",0,0,"+ (+, >50 spikes/second)",0,0,0,0
C=C1CC/C=C(\C)CC[C@@H]2[C@@H]1CC2(C)C [β-caryophyllene],0,"++ (++, >100 spikes/second)",0,0,0,0,0,0,0,0,"+ (+, >50 spikes/second)",0
CCC/C=C/C=O [E2-hexenal],0,0,"++ (++, >100 spikes/second)",0,"+ (+, >50 spikes/second)",0,0,"+ (+, >50 spikes/second)",0,0,0,0
C=C/C(C)=C/CC=C(C)C [E-β-Ocimene],0,0,"++ (++, >100 spikes/second)",0,0,0,0,0,0,0,0,0
CC(=O)OCC(C)C [isobutyl acetate],0,0,0,0,"++ (++, >100 spikes/second)",0,0,"++ (++, >100 spikes/second)",0,0,0,0
C=CCSSSCC=C [diallyl trisulfide],0,0,0,0,"+ (+, >50 spikes/second)",0,0,"+ (+, >50 spikes/second)",0,0,0,0
CCCCCC(C)=O [2-heptanone],0,0,"+ (+, >50 spikes/second)",0,"+ (+, >50 spikes/second)",0,0,"+ (+, >50 spikes/second)",0,0,0,0
CCCC(=O)OCC [ethyl butyrate],0,0,"+ (+, >50 spikes/second)",0,"+++ (+++, >150 spikes/second)",0,0,"++ (++, >100 spikes/second)",0,0,0,"++ (++, >100 spikes/second)"
(−)-limonene,0,0,0,0,"+ (+, >50 spikes/second)",0,0,"+ (+, >50 spikes/second)",0,0,0,0
CC1=CCC2C(C1)C2(C)C (stereo not drawn) [δ-3-carene],0,0,0,0,"++ (++, >100 spikes/second)",0,0,"++ (++, >100 spikes/second)",0,0,0,0
C/C1=C\CC/C(C)=C/CC(C)(C)/C=C/C1 [α-humulene],0,"++ (++, >100 spikes/second)",0,0,0,0,0,0,0,0,"++ (++, >100 spikes/second)",0
